Tested on: infected potato stem explants
Assay: Kanamycin selection of potato stem explants
Format: cell-based, potato (Russet Burbank)
Details: Kanamycin at 300 mg/l
Method: Potato--Shoot tips of virus-free Russet Burbank are subcultured on media containing MS major and minor salts, 0.17 g/l sodium dihygrogen phosphate, 0.4 mg/l thiamine hydrochloride, 0.1 g/l inositol, 3% sucrose, 1.5 g/l Gelrite™ (Kelco, Co ) at pH 5.6. Cultures are grown at 24C in a 16 hour photoperiod. Shoots are used approximately 3-4 weeks after subculturing. Stem internodes are cut into approximately 8 mm lengths and split lengthwise, then the cut surface is smeared with Agrobacterium carrying binary vector pMON542 and helper plasmid pTiT37-SE which had been streaked on an LB agar plate and grown for a few days. Stem sections are placed cut side down on the surface of the medium containing MS salts, MS organics, 3% sucrose, 2.25 mg/l BA, […] NAA, 10 mg/l GA, 1.5 g/l Gelrite at pH 5.6. After 4 days, the stem explants are transferred to the same medium but with carbenicillin at 500 mg/l and kanamycin as the selective agent at 0 or 300 mg/l. Two weeks after inoculation, the explants are moved onto medium of the same composition but without NAA.

NC[C@H]1O[C@H](O[C@H]2[C@H](O)[C@@H](O[C@H]3O[C@H](CO)[C@@H](O)[C@H](N)[C@H]3O)[C@H](N)C[C@@H]2N)[C@H](O)[C@@H](O)[C@@H]1O [Kanamycin, kanamycin]
swelling and callusing of explants: sufficient to prevent swelling and callusing of the infected explants without killing the tissue

From US5188642A, “Glyphosate-resistant plants” (priority 1990, dated 1993)
